According to patent US20090117598A1, “Method for identifying compounds that affect a transport of a protein through a membrane trafficking pathway” (priority 2004, published 2009):
pEC50: −log10 of the molar value.

Columns and labels:
Format in all cases: cell-based
Hela cells = test: fluid phase endocytosis assay (BODIPY-FL dextran internalization); conditions: for number of endosomes relative to the control: BODIPY-FL dextran 20 min at 37° C., FIG. 3b; for integrated fluorescence intensity per cell relative to the control: data not shown
Experimental: For the fluid phase endocytosis assay, Hela cells in 96 well plates were washed and incubated for 120 min with the compounds in serum free buffered medium under tissue culture conditions. The medium was then replaced with serum-free buffered medium supplemented with 1 mg/ml BODIPY-FL-Dextran and 10 μM Syto60. Cells were incubated for 20 min at 37° C., then placed on a cooled block and washed extensively with ice cold phosphate buffered saline 10% w/v bovine serum albumin (Serva; Heidelberg, Germany). Plates were imaged by the Opera using 488/633 nm excitation, 3 μm focus height above the coverslip, 1000 ms or 500 ms exposure and 510 nm (50 nm bandpass) or 680 (50 nm bandpass) filters, respectively.
Fluid phase endocytosis was measured using custom written scripts in Metamorph. Cells were identified in the 633 nm excitation SYTO60 image, the nuclei segmented and cells counted. A mask was generated from this image and used to identify cells in overlay of the 488 nm BODIPY-FL dextran image, to create regions of interest around the cell borders and excise them from the image. Background was deducted from the processed BODIPY-FL dextran image that was thresholded to identify endosomes as individual regions of interest. Image pairs with less than 300 cells per field of view were rejected.
A fluid phase endocytosis assay measured the internalization of green fluorescent 40 kDa BODIPY-FI dextran. Dextrans are ideal endocytotic markers for labelling endosomes and macropinosomes. In this assay, endosomes labelled with fluorescent dextran by internalization were readily identified with the Opera instrument (FIG. 2b). Dextran internalization satisfied all the classical prerequisites for an internalization assay—it was temperature dependent, arrested at 4° C. (FIG. 2a), and required a source of energy in the medium. Endocytosis was quantified by analysis of paired images of cells labelled with green dextran and the SYTO60 nuclear counter stain. The analysis was validated on cells that had internalized green fluorescent dextran for 20 min at 37° C. or at 4° C. (FIG. 2c).
To identify compounds affecting GPCR internalization and not affecting housekeeping endocytosis, the kinase and phosphatase inhibitor collection was screened against the fluid phase endocytosis assay (FIG. 3b). The effect of the compounds was evaluated. Four compounds (staurosporine, tyrphostin 9, AG-879, GF 109203×) were identified that reduced the number of endosomes (FIG. 3b) and the integrated intensity per cell relative to the control (data not shown).

[1] = tested on: ETAR internalization and fluid phase endocytosis; test: Overlap of the ETAR internalization and the fluid phase endocytosis screen; conditions: FIG. 3b
From the text: Overlap of the ETAR internalization and the fluid phase endocytosis screen was used to generate differential information from the two assays.

[2] = tested on: human endothelin A receptor; test: ETAR (GPCR) internalization assay, ETAR-EGFP in stably transfected HEK 293 cells; conditions: for receptor trafficking morphology observed (visual screen of primary hits): stimulation with 40 nM endothelin-1, FIG. 4
From the text: A human endothelin A receptor cDNA clone in pCDNA3.1(−) (Invitrogen Carlsbad, USA) was excised via KpnI/HindIII and fused to the egfp coding sequence of the pEGFP-N1 vector (Clontech, Palo Alto USA) by splice overlap PCR using specific primers. The amplified fragment was digested via KpnI/EcoRV and ligated in the pCDNA3.1(−) vector digested with the same combination of restriction enzymes. The resulting pETAR-EGFP DNA was cloned, checked by sequencing and used for transfection of HEK 293 cells using standard protocols. A recombinant clone was obtained through several cycles of genetecin selection and limiting dilutions. For screening, cells were passed onto coverslip bottomed 96 well plates (Greiner; Longwood, USA, or Whatman; Brentford, UK) at a density of 4·10^3 cells/well for Hela and 2·10^4 cells/well for HEK293 cells, 48 hours in advance.
For the GPCR internalization assay, recombinant HEK cells grown were plated in 96 well plates and incubated overnight in DMEM/F12 containing 10% FBS. The plates were washed and the cells incubated for 120 min under tissue culture conditions with the compounds in 1% serum medium. The compound solutions were then exchanged for a solution with the same compound concentration and supplemented with 40 nM endothelin-1 and 10 μM Syto60. Cells were incubated for 120 min at 22° C. Plates were imaged by the Opera using 488/633 nm excitation, 3 μm focus height above the coverslip, 250 ms or 500 ms exposure and 510 nm (50 nm bandpass) or 680 (50 nm bandpass) filters, respectively. Typically, 5 image pairs (at 488 and 633 nm excitation) per well were acquired.
GPCR translocation was evaluated using scripts within the Acapella script player software environment of the Opera. The script measured translocation of the ETAR-EGFP fusion protein from the plasma membrane into recycling endosomes. Cells were first located in the 633 nm excitation SYTO60 image. Red fluorescent nuclei were identified by thresholding and edge seeking and then segmented to create a mask. The number of cells was counted and the nuclei mask used to generate a new cytoplasmic mask. Subsequently, each cell was individually segmented and cells with at least one bright recycling endosome were identified. Image analysis was performed on- and offline and analyses were rejected if the cell count was beneath 100 per field of view.
The endothelin A GPCR internalization screen was carried out using a stably transfected HEK 293 cell line expressing a fusion protein between the ETAR and a c-terminal copy of the enhanced green fluorescent protein. […] This internalization event was used as the basis for measuring trafficking of the receptor by image analysis. Serum deprived cells were stimulated with endothelin-1 at several concentrations and simultaneously counterstained with DRAQ5 or SYTO60, which are long wavelength excitable DNA and nucleic acid stains, respectively. The cells were stimulated for 120 min at 22-23° C., then imaged on the Opera automated confocal imaging reader. Images of the GFP and red counterstain fluorescence were automatically recorded and used to determine the number of cells where internalization of the receptor had occurred.
Cells were pre-treated with 10 μM compound before stimulation with 40 nM endothelin-1 to ensure a uniform and robust internalization response for the receptor.

[3] = secondary screen 0.1 μM to 50 μM, FIG. 5

SMILES | number of endosomes relative to the control (Hela cells) | integrated fluorescence intensity per cell relative to the control (Hela cells; BODIPY-FL dextran) | comparison of the responses in the ETAR internalization and fluid phase endocytosis assays [1] | receptor trafficking morphology observed (visual screen of primary hits) ([2]; 10 μM compound) | also measured
CC(C)(C)c1cc(/C=C(\C#N)C(N)=S)cc(C(C)(C)C)c1O [AG-879] | reduced | reduced |  |  | 
CN(C)CCCn1cc(C2=C(c3c[nH]c4ccccc34)C(=O)NC2=O)c2ccccc21 [GF 109203X] | reduced | reduced | congruent in both assays |  | 
O=C1Nc2ccc(I)cc2/C1=C/c1cc(Br)c(O)c(Br)c1 [GW 5074] |  |  | large difference |  | hit classification in the primary screen ([2]; 10 μM compound, 40 nM endothelin-1, FIG. 3b): partial hit; concentration at which effect on GPCR internalization was seen (secondary screen) [2, 3]: 50 µM; effect on accumulation of the receptor in recycling endosomes ([2]; versus untreated endothelin-1 stimulated control cells, FIG. 4d): delayed accumulation of the receptor in the recycling endosomes
O=S(=O)(NCCNC/C=C/c1ccc(Br)cc1)c1cccc2cnccc12 [H-89] |  |  | large difference | enhanced accumulation in the recycling endosome | 
Cn1cc(C2=C(c3cn(CCCSC(=N)N)c4ccccc34)C(=O)NC2=O)c2ccccc21 [Ro 31-8220] |  |  | large difference | arrest of the receptor at the plasma membrane | 
CC[C@H](C)[C@H](NC(=O)[C@H](CC(=O)O)NC(=O)[C@H](CC(C)C)NC(=O)[C@H](Cc1c[nH]cn1)NC(=O)[C@@H]1CSSC[C@H](N)C(=O)N[C@@H](CO)C(=O)N[C@H]2CSSC[C@H](NC(=O)[C@H](CCC(=O)O)NC(=O)[C@H](CCCCN)NC(=O)[C@H](CC(=O)O)NC(=O)[C@H](CCSC)NC(=O)[C@H](CC(C)C)NC(=O)[C@H](CO)NC(=O)[C@H](CO)NC2=O)C(=O)N[C@@H](C(C)C)C(=O)N[C@@H](Cc2ccc(O)cc2)C(=O)N[C@@H](Cc2ccccc2)C(=O)N1)C(=O)N[C@H](C(=O)N[C@@H](Cc1c[nH]c2ccccc12)C(=O)O)[C@@H](C)CC [endothelin-1] |  |  |  |  | ETAR localization after endothelin-1 stimulation [2]: internalization of the fluorescent ETAR into an intracellular peri-centriolar compartment; pEC50 ([2]; read-out: EC50 of endothelin stimulation (ETAR-EGFP internalization)): 8.47
COC(=O)/C=C/c1cc(O)ccc1O [erbstatin analogue] |  |  | large difference | arrest of the receptor in small vesicular bodies | 
O=c1c(-c2ccc(O)cc2)coc2cc(O)cc(O)c12 [genistein] | increased | significantly increased |  |  | 
CN[C@@H]1C[C@H]2O[C@@](C)([C@@H]1OC)n1c3ccccc3c3c4c(c5c6ccccc6n2c5c31)C(=O)NC4 [staurosporine] | reduced | reduced | congruent in both assays | arrest of the receptor at the plasma membrane | effective concentration for blocking GPCR internalization (secondary screen) [2, 3]: 100 nM; endosomal pixel intensity (Hela cells; BODIPY-FL dextran): slightly increased
CC(C)(C)c1cc(C=C(C#N)C#N)cc(C(C)(C)C)c1O [tyrphostin 9] | reduced | reduced |  |  | 
